# How the values were obtained:
# [1] = test system: phosphorus and calcium levels in the urine of rats; test: Urinary excretion of phosphate and calcium in rats (16 h overnight urine); assay type: in vivo, rat; settings: rats, oral gavage, 16 h post-dose
# [2] = test system: absorption of sodium from the intestinal lumen; test: Inhibition of intestinal sodium absorption: urinary sodium (uNa) 16 h after single oral dose in rats; assay type: in vivo, rat; settings: oral gavage, 16 h post-dose
# Method: (§1) Inhibition of intestinal sodium and phosphate absorption. Urinary sodium concentration and fecal form were measured to assess the ability of selected example compounds to inhibit the absorption of sodium from the intestinal lumen. Eight-week old Sprague-Dawley rats were purchased from Charles River Laboratories (Hollister, CA), were housed 2 per cage, and acclimated for at least 3 days before study initiation. Animals were fed Harlan Teklad Global 2018 rodent chow (Indianapolis, IN) and water ad libitum throughout the study and maintained in a standard light/dark cycle of 6 AM to 6 PM. On the day of the study, between 4 PM and 5 PM, a group of rats (n=6) were dosed via oral gavage with test compound, or a pharmaceutically acceptable salt thereof, or vehicle (water) at a volume of 10 mL/kg.
# (§2) After dose administration animals were placed in individual metabolic cages where they were also fed the same chow in meal form and watered ad libitum. At 16 h post-dose, the urine samples were collected and fecal form was assessed by two independent observations. Fecal forms were scored according to a common scale associated with increasing fecal water to the wettest observation in the cage's collection funnel (1, normal pellet; 2, pellet adhering to sides of collection funnel due to moisture; 3, loss of normal pellet shape; 4, complete loss of shape with a blotting pattern; 5, liquid fecal streams evident). A rat's fecal form score (FFS) was determined by averaging both observational scores for all rats within a group (n=6). The vehicle group average was 1.
# For urine samples, the volumes were determined gravimetrically and centrifuged at 3,600×g. The supernatants were diluted 100-fold in deionized Milli-Q water then filtered through a 0.2 μm GHP Pall AcroPrep filter plate (Pall Life Sciences, Ann Arbor, MI) prior to analysis by ion chromatography. Ten microliters of each filtered extract was injected onto a Dionex ICS-3000 ion chromatograph system (Dionex, Sunnyvale, CA). Cations were separated by an isocratic method using 25 mM methanesulfonic acid as the eluent on an IonPac CS12A 2 mm i.d.×250 mm, 8 μm particle size cation exchange column (Dionex). Sodium was quantified using standards prepared from a cation standard mix containing Li^+, Na^+, NH4^+, K^+, Mg^2+, and Ca^2+ (Dionex). The mean mass of sodium urinated for every group in the 16 h period was determined with the vehicle group usually urinating approximately 21 mg sodium. The urine Na (uNa) for rats in the test groups were expressed as a percentage of the vehicle mean and the means were compared to that of the vehicle group by utilizing a one-way analysis of variance coupled with a Dunnett's post hoc test.
# Further experiments were performed to test the compounds under the persistent and prompt conditions described above, and to test their effects on urinary excretion of sodium in rats. The latter was performed by orally dosing the compounds in rats (single dose) and measuring urinary Na excretion (as a % of vehicle). The results are indicated as percentage of urinary sodium (UNa %); low values indicate relatively active compounds.
# Rat NHE3 = biological target: T1, Rat NHE3 (Rattus norvegicus, UniProt P26433); test: Cell-based NHE3 activity under prompt conditions (OK cells, BCECF pH recovery), rat NHE3; settings: prompt conditions
# T1 construct: expressed in transfected cells; host or cells: Opossum kidney (OK) cells (ATCC), electroporation
# Method: (§3) Cell-based activity under Prompt Conditions. Rat or human NHE3-mediated Na^+-dependent H antiport was measured using a modification of the pH sensitive dye method originally reported by Paradiso (PNAS USA. 81:7436-7440, 1984). Opossum kidney (OK) cells were obtained from the ATCC and propagated per their instructions. The rat NHE3 gene (GenBank M85300) or the human NHE3 gene (GenBank NM_004174.1) was introduced into OK cells via electroporation, and cells were seeded into 96 well plates and grown overnight. Medium was aspirated from the wells, cells were washed twice with NaCl-HEPES buffer (100 mM NaCl, 50 mM HEPES, 10 mM glucose, 5 mM KCl, 2 mM CaCl2, 1 mM MgCl2, pH 7.4), then incubated for 30 min at room temperature with NH4Cl-HEPES buffer (20 mM NH4Cl, 80 mM NaCl, 50 mM HEPES, 5 mM KCl, 2 mM CaCl2, 1 mM MgCl2, pH 7.4) containing 5 μM bis(acetoxymethyl) 3,3′-(3′,6′-bis(acetoxymethoxy)-5-((acetoxymethoxy)carbonyl)-3-oxo-3H-spiro[isobenzofuran-1,9′-xanthene]-2′,7′-diyl)dipropanoate (BCECF-AM).
# (§4) Cells were washed twice with Ammonium free, Na^+-free HEPES (100 mM choline, 50 mM HEPES, 10 mM glucose, 5 mM KCl, 2 mM CaCl2, 1 mM MgCl2, pH 7.4) and incubated in the same buffer for 10 minutes at room temperature to lower intracellular pH. […] Initial rates were plotted as the average 2 or more replicates, and pIC50 values were estimated using GraphPad Prism.
# (§5) Cell-based activity of NHE3 Activity under ‘Prompt’ Conditions. This assay was performed as described in Example 1 (supra).
# [3] = test system: absorption of sodium from the intestinal lumen; test: Fecal form score (FFS) 16 h after oral dose in rats; assay type: in vivo, rat; settings: oral gavage, 16 h post-dose, scale 1-5
# Method: as §1, §2
# Human NHE3 = biological target: T2, Human NHE3 (Homo sapiens, UniProt P48764); test: Cell-based NHE3 activity under prompt conditions (OK cells, BCECF pH recovery), human NHE3; settings: prompt conditions
# T2 construct: expressed in transfected cells; host or cells: Opossum kidney (OK) cells (ATCC), electroporation
# T2 sequence (P48764 26-834): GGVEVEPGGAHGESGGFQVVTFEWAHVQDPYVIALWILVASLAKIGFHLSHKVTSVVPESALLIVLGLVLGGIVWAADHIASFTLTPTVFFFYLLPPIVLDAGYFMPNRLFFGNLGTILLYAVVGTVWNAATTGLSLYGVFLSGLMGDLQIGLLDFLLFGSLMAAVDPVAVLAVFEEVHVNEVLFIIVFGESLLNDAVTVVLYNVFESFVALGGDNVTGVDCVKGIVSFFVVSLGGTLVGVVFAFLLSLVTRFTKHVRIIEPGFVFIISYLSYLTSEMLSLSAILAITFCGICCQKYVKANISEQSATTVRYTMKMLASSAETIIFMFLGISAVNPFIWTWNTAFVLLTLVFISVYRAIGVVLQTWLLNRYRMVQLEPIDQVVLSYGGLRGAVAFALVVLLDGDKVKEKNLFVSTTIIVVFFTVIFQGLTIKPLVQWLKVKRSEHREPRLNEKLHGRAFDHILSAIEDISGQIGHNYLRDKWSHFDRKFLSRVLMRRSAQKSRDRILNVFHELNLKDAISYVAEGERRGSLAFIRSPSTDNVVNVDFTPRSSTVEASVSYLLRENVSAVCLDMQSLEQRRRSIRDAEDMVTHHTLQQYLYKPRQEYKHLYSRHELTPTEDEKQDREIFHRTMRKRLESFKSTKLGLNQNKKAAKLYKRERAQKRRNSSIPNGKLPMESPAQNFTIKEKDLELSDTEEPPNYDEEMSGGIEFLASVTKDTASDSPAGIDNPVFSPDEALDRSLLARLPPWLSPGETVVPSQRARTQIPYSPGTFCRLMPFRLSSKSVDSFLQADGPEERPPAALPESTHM
# Method: as §3, §4, §5
# T1 sequence (P26433 29-831): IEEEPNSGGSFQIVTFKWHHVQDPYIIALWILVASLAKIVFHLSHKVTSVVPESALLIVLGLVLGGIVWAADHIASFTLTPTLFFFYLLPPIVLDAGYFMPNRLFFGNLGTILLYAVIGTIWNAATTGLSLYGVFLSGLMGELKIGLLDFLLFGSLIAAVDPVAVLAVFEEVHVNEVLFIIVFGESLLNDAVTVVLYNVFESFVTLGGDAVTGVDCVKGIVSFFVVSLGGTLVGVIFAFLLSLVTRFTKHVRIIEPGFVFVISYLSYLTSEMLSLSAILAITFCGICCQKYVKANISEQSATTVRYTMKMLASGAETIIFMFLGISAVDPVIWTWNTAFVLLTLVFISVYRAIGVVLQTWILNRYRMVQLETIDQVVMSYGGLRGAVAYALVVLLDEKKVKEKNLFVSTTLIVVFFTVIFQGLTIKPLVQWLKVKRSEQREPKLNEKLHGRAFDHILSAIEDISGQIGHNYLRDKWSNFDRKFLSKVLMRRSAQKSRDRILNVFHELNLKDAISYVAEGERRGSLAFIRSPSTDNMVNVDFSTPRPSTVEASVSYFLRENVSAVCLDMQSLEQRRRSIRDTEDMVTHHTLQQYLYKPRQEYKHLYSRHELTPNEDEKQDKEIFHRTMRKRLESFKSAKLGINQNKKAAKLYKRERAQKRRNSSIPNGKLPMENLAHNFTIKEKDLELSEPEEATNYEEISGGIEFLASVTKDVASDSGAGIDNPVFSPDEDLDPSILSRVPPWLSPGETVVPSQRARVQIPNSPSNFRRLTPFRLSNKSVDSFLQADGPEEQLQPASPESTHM
SMILES,Urine P % of control ([1]; dose 3 mg/kg) [%],Urine Na % of control ([2]; dose 3 mg/kg) [%],Prompt Rat NHE3 pIC50 (Rat NHE3),Fecal Form Score average ([3]; dose 3 mg/kg),Prompt Human NHE3 pIC50 (Human NHE3),Urine P % of control ([1]; dose 10 mg/kg) [%],Urine Na % of control ([2]; dose 10 mg/kg) [%],Fecal Form Score average ([3]; dose 10 mg/kg),Urine P % of control ([1]; dose 30 mg/kg) [%],Urine Na % of control ([2]; dose 30 mg/kg) [%],Fecal Form Score average ([3]; dose 30 mg/kg),Urine P % of control ([1]; dose 1 mg/kg) [%],Urine Na % of control ([2]; dose 1 mg/kg) [%],Fecal Form Score average ([3]; dose 1 mg/kg),IC50 (Rat NHE3; read-out: Prompt Rat NHE3 pIC50 (converted)) [nM],IC50 (Human NHE3; read-out: Prompt Human NHE3 pIC50 (converted)) [nM]
CN1Cc2c(Cl)cc(Cl)cc2[C@H](c2cccc(S(=O)(=O)NCCOCCOCCNC(=O)CCC(CCC(=O)NCCOCCOCCNS(=O)(=O)c3cccc([C@@H]4CN(C)Cc5c(Cl)cc(Cl)cc54)c3)(CCC(=O)NCCOCCOCCNS(=O)(=O)c3cccc([C@@H]4CN(C)Cc5c(Cl)cc(Cl)cc54)c3)NC(=O)NCCN3CCOCC3)c2)C1 [compound 144],47,32,7.20,2,7.77,–,–,–,–,–,–,–,–,–,–,–
C/C(=C\c1cc(F)c(Oc2ccc(S(=O)(=O)NCCOCCOCCOCCNCc3ccc(CNCCOCCOCCOCCNS(=O)(=O)c4ccc(Oc5c(F)cc(/C=C(\C)C(=O)N=C(N)N)cc5F)cc4)cc3)cc2)c(F)c1)C(=O)N=C(N)N [compound 13],–,–,6.70,–,7.40,56,74,1,–,–,–,–,–,–,–,–
CN1Cc2c(Cl)cc(Cl)cc2[C@H](c2cccc(S(=O)(=O)NCCOCCOCCOCCNC(=O)COCC(=O)NCCOCCOCCOc3cccc(-c4nc(NC(=N)N)nc5ccc(Cl)cc45)c3)c2)C1 [compound 25],–,–,6.85,–,6.60,150,87,1,–,–,–,–,–,–,–,–
NCCOCCOCCOc1ccc(-c2nc(N=C(N)N)nc3ccc(Cl)cc23)cc1 [compound 11],–,–,6.95,–,6.80,64,60,1,96,29,2,–,–,–,–,–
CN1Cc2c(Cl)cc(Cl)cc2[C@H](c2cccc(S(=O)(=O)NCCOCCOCCNC(=O)CCN(CCC(=O)NCCOCCOCCNS(=O)(=O)c3cccc([C@@H]4CN(C)Cc5c(Cl)cc(Cl)cc54)c3)CCC(=O)NCCOCCOCCNS(=O)(=O)c3cccc([C@@H]4CN(C)Cc5c(Cl)cc(Cl)cc54)c3)c2)C1 [compound 80],39,55,5.50,2,6.93,21,9,3,–,–,–,70,66,1,–,–
O=C(CCOCCOCCOCCOCCOCCC(=O)NCCOCCOCCOCCNS(=O)(=O)c1ccc(OC2c3ccccc3CC2N2CCCCC2)cc1)NCCOCCOCCOCCNS(=O)(=O)c1ccc(OC2c3ccccc3CC2N2CCCCC2)cc1 (stereo not drawn) [compound 53],–,–,7.45,–,7.40,59,100,1,–,–,–,–,–,–,–,–
CN1Cc2c(Cl)cc(Cl)cc2[C@H](c2cccc(S(=O)(=O)NCCOCCOCCNC(=O)NCCCC(N)(CCCNC(=O)NCCOCCOCCNS(=O)(=O)c3cccc([C@@H]4CN(C)Cc5c(Cl)cc(Cl)cc54)c3)CCCNC(=O)NCCOCCOCCNS(=O)(=O)c3cccc([C@@H]4CN(C)Cc5c(Cl)cc(Cl)cc54)c3)c2)C1 [compound 147],32,40,7.00,2,7.67,–,–,–,–,–,–,–,–,–,–,–
O=C(O)CN(CCN(CC(=O)O)CC(=O)NCCOCCOCCNS(=O)(=O)c1ccc(O[C@H]2c3ccccc3C[C@@H]2N2CCCCC2)cc1)CC(=O)NCCOCCOCCNS(=O)(=O)c1ccc(O[C@H]2c3ccccc3C[C@@H]2N2CCCCC2)cc1 (racemic) [compound 48],–,–,–,–,–,55,68,1,–,–,–,–,–,–,28.2,79.4
NC(N)=Nc1nc(-c2ccc(N3CCN(CCOCCOCCNC(=O)[C@H](O)[C@@H](O)C(=O)NCCOCCOCCN4CCN(c5ccc(-c6nc(N=C(N)N)nc7ccc(Cl)cc67)cc5)CC4)CC3)cc2)c2cc(Cl)ccc2n1 [compound 17],–,–,7.10,–,6.60,–,–,–,120,86,1,–,–,–,–,–

# From US20240366589A1, “NHE3-BINDING COMPOUNDS AND METHODS FOR INHIBITING PHOSPHATE TRANSPORT” (Ardelyx, Inc., priority 2013, published 2024)
